Measured values taken from patent US7595401B2, “Therapeutic compounds and their use in cancer” (Myriad Pharmaceuticals, Inc., priority 2006, dated 2009).

system: purified human Hsp90; assay: Binding Assay: fluorescence polarization with BODIPY-labeled geldanamycin; conditions: 5 μM compound, BODIPY-GM 10 nM, Hsp90 30 nM
Procedure, shortened: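 Compounds in 2% DMSO final compete with 10 nM BODIPY-GM for 30 nM purified human Hsp90, incubated overnight at room temperature in pH 7.3 HEPES buffer containing Na2MoO4 and DTT. Polarization (mP, ex/em 485/530) normalized to DMSO gives percent inhibition; autofluorescence-confounded data excluded.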

Compound | % Inhibition at 5 μM Compound Concentration [%]
COc1ccc(OC)c(Sc2nc3c(N)ncn(CC(c4ccccc4)C(C)C)c-3n2)c1 (centres unmarked) [Example 114, 8-(2,5-dimethoxy-phenylsulfanyl)-3-(3-methyl-2-phenyl-butyl)-3H-purin-6-ylamine] | 14
Nc1ncnc2c1nc(Sc1cc3c(cc1Br)OCO3)n2CCc1cccc(C(F)(F)F)c1 [Example 165, 8-(6-Bromo-benzo[1,3]dioxol-5-ylsulfanyl)-9-[2-(3-trifluoromethyl-phenyl)-ethyl]-9H-purin-6-ylamine] | 60
COc1ccc(OC)c(Sc2nc3c(N)ncnc3n2CCc2cc(C)cc(C)c2)c1 [Example 132, 8-(2,5-Dimethoxy-phenylsulfanyl)-9-[2-(3,5-dimethyl-phenyl)-ethyl]-9H-purine-6-ylamine] | 54
Nc1ncn(CCc2ccccc2)c2nc(Sc3cc(OC(F)(F)F)ccc3Cl)nc1-2 [Example 229, 8-{[2-Chloro-5-(trifluoromethoxy)phenyl]thio}-3-(2-phenylethyl)-3H-purin-6-amine] | 24
CN1C2CCC1CC(CCn1cnc(N)c3nc(Sc4cc5c(cc4Br)OCO5)nc1-3)C2 (stereo not drawn) [Example 427, 8-[(6-Bromo-1,3-benzodioxol-5-yl)thio]-3-{2-[(3-endo)-8-methyl-8-azabicyclo[3.2.1]oct-3-yl]ethyl}-3H-purin-6-amine] | 32
COc1ccc(OC)c(Sc2nc3c(N)ncnc3n2CCCc2ccccc2)c1 [Example 3, 8-(2,5-Dimethoxy-phenylsulfanyl)-9-(3-phenyl-propyl)-9H-purin-6-ylamine] | 36
Nc1ncn(CCc2cccs2)c2nc(Sc3cc4c(cc3Br)OCO4)nc1-2 [Example 204, 8-(6-bromo-benzo[1,3]dioxol-5-ylsulfanyl)-3-(2-thiophen-2-yl-ethyl)-3H-purin-6-ylamine] | 11

Continued, values first:

% Inhibition at 5 μM Compound Concentration [%] | Compound
4 | CC(C)(C)NC(=O)N1CCCC(CCn2cnc(N)c3nc(Sc4cc5c(cc4Br)OCO5)nc2-3)C1 (centres unmarked) [Example 442, 3-(2-{6-Amino-8-[(6-bromo-1,3-benzodioxol-5-yl)thio]-3H-purin-3-yl}ethyl)-N-(tert-butyl)piperidine-1-carboxamide]
19.00 | Nc1ncn(CCC2CCN(C(=O)C3(C(F)(F)F)CC3)CC2)c2nc(Sc3cc4c(cc3Br)OCO4)nc1-2 [Example 527]
55 | CC(C)[C@H](NC(=O)OC(C)(C)C)C(=O)N1CCCC(CCn2cnc(N)c3nc(Sc4cc5c(cc4Br)OCO5)nc2-3)C1 (stereo partly drawn) [Example 698, tert-Butyl((1S)-1-{[3-(2-{6-amino-8-[(6-bromo-1,3-benzodioxol-5-yl)thio]-3H-purin-3-yl}ethyl)piperidin-1-yl]carbonyl}-2-methylpropyl)carbamate]
0.0 | COc1ccc(I)c(Sc2nc3c(N)ncn(CCc4ccccc4)c-3n2)c1 [Example 323, 8-[(2-Iodo-5-methoxyphenyl)thio]-3-(2-phenylethyl)-3H-purin-6-amine]
0.0 | COc1cccc(Sc2nc3c(N)ncn(CC(=O)c4ccccc4)c-3n2)c1 [Example 299, 2-{6-Amino-8-[(3-methoxyphenyl)thio]-3H-purin-3-yl}-1-phenylethanone]

same assay, conditions: BODIPY-GM 10 nM, Hsp90 30 nM

Compound | IC50 [nM]
Nc1ncnc2c1nc(Sc1cc3c(cc1Br)OCO3)n2CC(c1ccccc1)C1CCCC1 (centres unmarked) [Example 101, 8-(6-Bromo-benzo[1,3]dioxol-5-ylsulfanyl)-9-(2-cyclopentyl-2-phenyl-ethyl)-9H-purin-6-ylamine] | > 3000
CCC(Cn1cnc(N)c2nc(Sc3cc(OC)ccc3OC)nc1-2)c1ccccc1 (centres unmarked) [Example 88] | 1300
Nc1ncnc2c1nc(Sc1cc3c(cc1Br)OCO3)n2CCc1cccc(C(F)(F)F)c1 [Example 165, 8-(6-Bromo-benzo[1,3]dioxol-5-ylsulfanyl)-9-[2-(3-trifluoromethyl-phenyl)-ethyl]-9H-purin-6-ylamine] | 300
COc1ccc(OC)c(Sc2nc3c(N)ncnc3n2CCc2cc(C)cc(C)c2)c1 [Example 132, 8-(2,5-Dimethoxy-phenylsulfanyl)-9-[2-(3,5-dimethyl-phenyl)-ethyl]-9H-purine-6-ylamine] | 500
COc1cc(Sc2nc3c(N)nc(F)nc3n2CCc2c(Cl)cccc2Cl)c(Cl)c(OC)c1OC [Example 239, 8-[(2-Chloro-3,4,5-trimethoxyphenyl)thio]-9-[2-(2,6-dichlorophenyl)ethyl]-2-fluoro-9H-purin-6-amine] | > 25000
Nc1ncn(CCc2ccccc2)c2nc(Sc3cc4c(cc3I)OCO4)nc1-2 [Example 34, 8-(6-iodo-benzo[1,3]dioxol-5-ylsulfanyl)-3-phenethyl-3H-purin-6-ylamine] | > 10000
COc1ccc(OC)c(Sc2nc3c(N)ncnc3n2CCc2ccc([N+](=O)[O-])cc2)c1 [Example 8, 8-(2,5-Dimethoxy-phenylsulfanyl)-9-[2-(4-nitro-phenyl)-ethyl]-9H-purin-6-ylamine] | 18000
COc1ccc(OC)c(Sc2nc3c(N)ncnc3n2CC(c2ccccc2)C2CCCC2)c1 (centres unmarked) [Example 103, 9-(2-Cyclopentyl-2-phenyl-ethyl)-8-(2,5-dimethoxy-phenylsulfanyl)-9H-purin-6-ylamine] | > 1000
Nc1ncnc2c1nc(Sc1cc3c(cc1Br)OCO3)n2CCc1c(Cl)cccc1Cl [Example 128, 8-(6-Bromo-benzo[1,3]dioxol-5-ylsulfanyl)-9-[2-(2,6-dichloro-phenyl)-ethyl]-9H-purin-6-ylamine] | 66
COc1ccc(OC)c(Sc2nc3c(N)ncnc3n2CCc2ccc(F)cc2)c1 [Example 9, 8-(2,5-Dimethoxy-phenylsulfanyl)-9-[2-(4-fluoro-phenyl)-ethyl]-9H-purin-6-ylamine] | 1000
CCOP(=O)(OCC)N1CCCCC1CCn1c(Sc2cc3c(cc2Br)OCO3)nc2c(N)ncnc21 (centres unmarked) [Example 643, Diethyl [2-(2-{6-amino-8-[(6-bromo-1,3-benzodioxol-5-yl)thio]-9 H-purin-9-yl}ethyl)piperidin-1-yl]phosphonate] | 5000

The next lines start with the values.

IC50 [nM] | Compound
130 | Nc1ncnc2c1nc(Sc1cc3c(cc1Br)OCO3)n2CCC1CCN(C(=O)[C@@H]2CCN2)CC1 [Example 752, 9-(2-{1-[(2S)-Azetidin-2-ylcarbonyl]piperidin-4-yl}ethyl)-8-[(6-bromo-1,3-benzo-dioxol-5-yl)thio]-9H-purin-6-amine]
> 8000 | CCCCNC(=O)Nc1ccc(CCn2c(Sc3cc(OC)ccc3OC)nc3c(N)ncnc32)cc1 [Example 277, N-[4-(2-{6-Amino-8-[(2,5-dimethoxyphenyl)thio]-9H-purin-9-yl}ethyl)phenyl]-N′-butylurea]
62 | CC12CCC(CC(CCn3c(Sc4cc5c(cc4Br)OCO5)nc4c(N)ncnc43)C1)O2 (centres unmarked) [Example 607, 8-[(6-Bromo-1,3-benzodioxol-5-yl)thio]-9-{2-[1-methyl-8-oxabicyclo[3.2.1]oct-3-yl]ethyl}-9 H-purin-6-amine]
120 | Nc1ncnc2c1nc(Sc1cc3c(cc1Br)OCO3)n2CCC(N)C1CCSCC1 (centres unmarked) [Example 689, 9-[3-Amino-3-(tetrahydro-2H-thiopyran-4-yl)propyl]-8-[(6-bromo-1,3-benzodioxol-5-yl)thio]-9H-purin-6-amine]
600 | Nc1ncnc2c1nc(Sc1cc3c(cc1Br)OCO3)n2CC=C1CCNCC1 [Example 471, 8-[(6-Bromo-1,3-benzodioxol-5-yl)thio]-9-(2-piperidin-4-ylideneethyl)-9 H-purin-6-amine]
100 | COc1ccc(I)c(Sc2nc3c(N)ncnc3n2CCc2ccccc2)c1 [Example 322, 8-[(2-Iodo-5-methoxyphenyl)thio]-9-(2-phenylethyl)-9H-purin-6-amine]
2000 | C[C@H](NC(=O)OC(C)(C)C)C(=O)N1CCCC(Cn2c(Sc3cc4c(cc3Br)OCO4)nc3c(N)ncnc32)C1 (stereo partly drawn) [Example 778, tert-Butyl {(1S)-2-[3-({6-amino-8-[(6-bromo-1,3-benzodioxol-5-yl)thio]-9H-purin-9-yl}methyl)piperidin-1-yl]-1-methyl-2-oxoethyl}carbamate]
700 | Nc1ncnc2c1nc(Sc1ccc3c(c1)CCC3=O)n2CCC1CCN(C=O)CC1 [Example 555, 4-(2-{6-Amino-8-[(1-oxo-2,3-dihydro-1 H-inden-5-yl)thio]-9 H-purin-9-yl}ethyl)piperidine-1-carbaldehyde]
60 | COc1ccccc1CCn1c(Sc2cc3c(cc2Br)OCO3)nc2c(N)ncnc21 [Example 287, 8-[(6-Bromo-1,3-benzodioxol-5-yl)thio]-9-[2-(2-methoxyphenyl)ethyl]-9H-purin-6-amine]
65 | CC(C)NC(=O)N1CCC(CCn2c(Sc3cc4c(cc3Br)OCO4)nc3c(N)ncnc32)CC1 [Example 432, 4-(2-{6-Amino-8-[(6-bromo-1,3-benzodioxol-5-yl)thio]-9H-purin-9-yl}ethyl)-N-isopropylpiperidine-1-carboxamide]
184 | Nc1ncnc2c1nc(Sc1cc3c(cc1Br)OCO3)n2CCC1CNC1 [Example 483, 9-(2-Azetidin-3-ylethyl)-8-[(6-bromo-1,3-benzodioxol-5-yl)thio]-9 H-purin-6-amine]
190 | CC(=O)N1CCC(CCn2c(Sc3nc4cccc(Cl)c4s3)nc3c(N)ncnc32)CC1 [Example 657, 9-[2-(1-Acetylpiperidin-4-yl)ethyl]-8-[(7-chloro-1,3-benzothiazol-2-yl)thio]-9H-purin-6-amine]
1000 | COc1ccc(OC)c(Sc2nc3c(N)ncnc3n2CCN2C(=O)CCCC2=O)c1 [Example 485, 1-(2-{6-Amino-8-[(2,5-dimethoxyphenyl)thio]-9H-purin-9-yl}ethyl)piperidine-2,6-dione]
> 5000 | Nc1ncnc2c1nc(Sc1cc3c(cc1Br)OCO3)n2CCC1CCCCN1C(=O)OCc1ccccc1 (centres unmarked) [Example 592, Benzyl 2-(2-{6-amino-8-[(6-bromo-1,3-benzodioxol-5-yl)thio]-9 H-purin-9-yl}ethyl)piperidine-1-carboxylate]
> 25000 | COc1ccc(OC)c(Sc2nc3c(N)ncnc3n2CCn2cnc3ccccc3c2=O)c1 [Example 271, 3-(2-{6-Amino-8-[(2,5-dimethoxyphenyl)thio]-9H-purin-9-yl}ethyl)quinazolin-4(3 H)-one]
